Series [1] relates to Ang II and Ang-(1-7) levels in the renal tissue. The series can be described thus: Ang II and Ang-(1-7) level assessment in the renal tissue of SHR/WKY rats (ELISA). The format is in vivo, rat. The following applies: 20 mg/kg oral once daily for 42 days, ELISA (FIG. 1). The protocol: (§1) A total of 20 Wistar-Kyoto rats (WKY) and 20 SHR (male, 16˜17 weeks old) animals were grouped into four: WKY group (8 WKY, orally administered 0.5% CMC-Na); SHR group (8 SHR, orally administered 0.5% CMC-Na); WKY+Ginsenoside M1 group (8 WKY, orally administered 20 mg/kgGinsenoside M1); SHR +Ginsenoside M1 group (8 SHR, orally administered 20 mg/kg Ginsenoside M1). Ginsenoside M1 or placebo administration was carried out once daily for 42 days is was followed by animal sacrifice and blood and renal tissue sample collection. The renal tissue specimens underwent fixation with 4% formalin (histopathology) or were snap-frozen with liquid nitrogen and kept at −80° C. for reverse transcription quantitative real-time polymerase chain reaction (RT-qPCR) and enzyme-linked immunosorbent assay (ELISA).
(§2) The supernatants of renal specimens were prepared as follows. A total of 100 mg of the renal tissue was homogenized in 900 μL of ice-cold normal saline and submitted to centrifugation (1000 g, 4° C. for 15 min). The resulting supernatants were kept at −80° C. until analysis with Ang II and Ang-(1-7) ELISA kits, respectively, in accordance with the manufacturer's protocols.

Series [2] relates to ACE. The experiment in a line: IHC of ACE in the renal tissue of SHR/WKY rats. The following applies: either WKY or SHR, 20 mg/kg oral once daily for 42 days, IHC (FIG. 2). The format is in vivo, rat. On the procedure:
as §1
(§3) ACE and ACE2 primary antibodies were produced by Bioss Antibodies. Peroxidase-linked goat anti-rabbit secondary antibodies and the DAB and two-step rabbit IHC kits were provided by ZSGB-BIO. IHC was carried out as proposed by ZSGB-BIO.

Series [3] has as its system ACE2. The experiment in a line: IHC of ACE2 in the renal tissue of SHR/WKY rats. As to conditions: SHR, 20 mg/kg oral once daily for 42 days, IHC (FIG. 2). In kind it is in vivo, rat. The protocol: as §1, §3
The subject of series [4] is Ang II and Ang-(1-7) levels in the renal tissue. The experiment in a line: Ang II and Ang-(1-7) level assessment in the renal tissue of mice infused Ang II (ELISA). In kind it is in vivo. As to conditions: C57BL/6 mice infused Ang II, 20 mg/kg oral daily for 14 days, ELISA (FIG. 3), vs Ang II group. On the procedure:
(§4) A total of twenty C57BL/6 mice (male, 10 weeks old) were maintained with rodent chow and water at will. Subcutaneous implantation of a 1002 osmotic minipump was performed at the dorsum of the neck for Ang II (1.5 mg/kg) or normal saline infusion animals were assigned to four groups: Saline group (5 mice, infused with normal saline and orally administered 0.5% CMC-Na); Ang II group (5 mice, infused with Ang II and orally administered 0.5% CMC-Na); Saline+Ginsenoside M1 group (5 mice, infused with normal saline and orally administered 20 mg·kg−1·d−1 Ginsenoside M1); Ang II +Ginsenoside M1 group (5 mice, infused with Ang II and orally administered 20 mg/kg Ginsenoside M1). Ginsenoside M1 or placebo administration was performed daily for 14 days, followed by animal sacrifice and blood and renal tissue sample collection. The renal tissue specimens underwent fixation with 4% formalin (histopathology) or were snap-frozen with liquid nitrogen and kept at −80° C. (RT-qPCR and ELISA).
as §2

The test system of series [5] is ACE. The series can be described thus: IHC of ACE in the renal tissue of mice (infusion model). As to conditions: C57BL/6 mice infused saline or Ang II, 20 mg/kg oral daily for 14 days, IHC (FIG. 4). In kind it is in vivo. On the procedure: as §4, §3
For series [6], the system named is ACE2. The experiment in a line: IHC of ACE2 in the renal tissue of mice (infusion model). As to conditions: C57BL/6 mice infused Ang II, 20 mg/kg oral daily for 14 days, IHC (FIG. 4), vs the other three groups. In kind it is in vivo. The protocol: as §4, §3
Series [7] relates to bleomycin-induced lung fibrosis. The series can be described thus: Bleomycin-induced lung alveolitis and fibrosis in mice (Szapiel scoring). In kind it is in vivo. On the procedure:
The animals were randomly divided into 5 groups as: (1) Saline group: 0.9% saline (200 μL) injection via the tail vein; (2) ACE2 group: a single intraperitoneal injection of ACE2 (0.2 mg/kg); (3) BLM group: a single injection of bleomycin at 150 mg/kg via the tail vein; and (4) BLM+ACE2 group: an injection of bleomycin at 150 mg/kg via the tail vein, followed by an intraperitoneal injection of ACE2 at 0.2 mg/kg. (5) BLM+ACE2+M1 group: an injection of bleomycin at 150 mg/kg via the tail vein, followed by an intraperitoneal injection of 0.2 mg/kg ACE2 and 60mg/kg M1. After administration, ten animals randomly selected from each group were euthanized on days 7, 14 and 28 by cervical dislocation.
Administration of bleomycin is a well-characterized model of pulmonary alveolitis or fibrosis in mice. The fibrotic changes in the lungs were determined using the Szapiel scoring method, higher score indicating greater disease condition. […] On day 28, in the BLM group, alveolitis spontaneously resolved; however, derangement of the alveolar architecture continued, and fibrosis persisted, characterized by diffuse, dense, thick collagen bundles and fibroblast foci.

The mark [8] stands for this setting: day 14, bleomycin 150 mg/kg tail vein, ACE2 0.2 mg/kg i.p.

Consider `CC(C)=CCC[C@](C)(O[C@@H]1O[C@H](CO)[C@@H](O)[C@H](O)[C@H]1O)[C@H]1CC[C@]2(C)[C@@H]1[C@H](O)C[C@@H]1[C@@]3(C)CC[C@H](O)C(C)(C)[C@@H]3CC[C@]12C` [Ginsenoside M1, 20-O-β-D-glucopyranosyl-20(S)-protopanaxadiol], for which the “Ang II levels in the renal tissue” value in series [1] (SHR, vs SHR group) was “significantly reduced”; in series [1] (WKY), “limited effects”; in series [4] it was “attenuate this increase significantly”. In series [1] (SHR, vs SHR group), the “Ang-(1-7) amounts in the renal tissue” value was “significantly higher values compared with the SHR group”. Besides, the “ACE expression in the renal tissue” value in the series with ACE [2] is reported as “no significant effect”; with ACE [5] it was “no marked differences”. The “ACE2 amounts in the renal tissue” value in the series with ACE2 [3] is recorded as “further upregulate”. Besides, the “Ang-(1-7) levels in the renal tissue” value in series [4] is given as “significant increase compared with the Ang II group”. Besides, in the series with ACE2 [6], the “ACE2 expression levels in the renal tissue” value is “markedly elevated”.

B1: ACE2: recombinant mouse ACE2 (angiotensin-converting enzyme 2) given by intraperitoneal injection (protein, UniProt Q8R0I0 18-805, looked up)
Angiotensin-converting enzyme …: QSLTEENAKTFLNNFNQEAEDLSYQSSLASWNYNTNITEENAQKMSEAAAKWSAFYEEQSKTAQSFSLQEIQTPIIKRQLQALQQSGSSALSADKNKQLNTILNTMSTIYSTGKVCNPKNPQECLLLEPGLDEIMATSTDYNSRLWAWEGWRAEVGKQLRPLYEEYVVLKNEMARANNYNDYGDYWRGDYEAEGADGYNYNRNQLIEDVERTFAEIKPLYEHLHAYVRRKLMDTYPSYISPTGCLPAHLLGDMWGRFWTNLYPLTVPFAQKPNIDVTDAMMNQGWDAERIFQEAEKFFVSVGLPHMTQGFWANSMLTEPADGRKVVCHPTAWDLGHGDFRIKMCTKVTMDNFLTAHHEMGHIQYDMAYARQPFLLRNGANEGFHEAVGEIMSLSAATPKHLKSIGLLPSDFQEDSETEINFLLKQALTIVGTLPFTYMLEKWRWMVFRGEIPKEQWMKKWWEMKREIVGVVEPLPHDETYCDPASLFHVSNDYSFIRYYTRTIYQFQFQEALCQAAKYNGSLHKCDISNSTEAGQKLLKMLSLGNSEPWTKALENVVGARNMDVKPLLNYFQPLFDWLKEQNRNSFVGWNTEWSPYADQSIKVRISLKSALGANAYEWTNNEMFLFRSSVAYAMRKYFSIIKNQTVPFLEEDVRVSDLKPRVSFYFFVTSPQNVSDVIPRSEVEDAIRMSRGRINDVFGLNDNSLEFLGIHPTLEPPYQPPVTIWLIIFGVVMALVVVGIIILIVTGIKGRKKKNETKREENPYDSMDIGKGESNAGFQNSDDAQTSF
In the case of B1, in series [7] (ACE2 group: single i.p. injection 0.2 mg/kg, no bleomycin, days 7, 14 and 28), the “Signs of alveolitis or fibrosis without bleomycin” value is given as “No signs of alveolitis or fibrosis”. Further, the “Pathological changes in the lung (alveolitis)” value in series [7] (day 7, bleomycin 150 mg/kg tail vein, ACE2 0.2 mg/kg i.p.) was “did not significantly alter”. In series [7] (setting [8]), the “Alveolitis (Szapiel scoring)” value is given as “significantly attenuated” and the “Fibrosis (Szapiel scoring)” value was “significantly attenuated”. In addition, the “Alveolitis (Szapiel scoring)” value in series [7] (day 28, bleomycin 150 mg/kg tail vein, ACE2 0.2 mg/kg i.p., with or without M1 60 mg/kg) is recorded as “only mild to moderate alveolitis”.

Source of the values: patent publication US20230101022A1, “GINSENOSIDE M1 AS A MODULATOR OF A[…] AND ITS USE FOR TREATING DISEASES OR […] SYMPTOMS CAUSED BY CORONAVIRUS” (priority 2020, published 2023).
